In ChEMBL document CHEMBL1201862, “PubChem BioAssay data set” (2004):
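Compound exposure: 48 hours, 5 concentrations, 96-well plates. GI50 marks 50% less growth.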 Active and inactive are the calls of the source. No stated cut-off is given here; in the data, active = GI50 up to about 1.1 µM and inactive = higher.

Key:
Assay in all cases: NCI-60 cell line screen, 48 h
[1] = test system: 786-0
[2] = test system: BT-549
[3] = test system: EKVX
[4] = test system: HL-60
[5] = test system: K562
[6] = test system: MCF7
[7] = test system: MOLT-4
[8] = test system: NCI/ADR-RES
[9] = test system: OVCAR-5
[10] = test system: SF-268
[11] = test system: SF-295
[12] = test system: SF-539
[13] = test system: SK-MEL-2
[14] = test system: SK-OV-3
[15] = test system: SN12C
[16] = test system: SNB-75
[17] = test system: SR
[18] = test system: SW-620
[19] = test system: U-251
[20] = test system: UACC-62

Measured: GI50

Clc1ccc(/C(=C\c2ccccc2)Cn2ccnc2)cc1
inactive: [1] 17.4 µM | [2] 14.4 µM | [3] 21.9 µM | [4] 14.1 µM | [5] 9.93 µM | [6] 16.1 µM | [7] 21.1 µM | [8] 14.6 µM | [9] 19.8 µM | [10] 4.25 µM | [11] 17.9 µM | [12] 16.3 µM | [13] 14.3 µM | [14] 16.5 µM | [15] 27.4 µM | [16] 26.2 µM | [17] 3.46 µM | [18] 29.5 µM | [19] 15.2 µM | [20] 16.7 µM

COC1=CC(=O)C[C@@H](C)[C@]12Oc1c(Cl)c(OC)cc(OC)c1C2=O [GRISEOFULVIN]
inactive: [1] 50.1 µM | [2] > 39.5 µM | [3] > 100 µM | [4] 6.7 µM | [5] 3.47 µM | [6] 9.62 µM | [7] 39.9 µM | [8] 12.3 µM | [9] > 91.6 µM | [10] > 68.9 µM | [11] 21.8 µM | [12] 14.6 µM | [13] > 71.6 µM | [14] 35.4 µM | [15] 40.5 µM | [16] 4.5 µM | [17] 7.48 µM | [18] 7.62 µM | [19] 27.7 µM | [20] 18.6 µM

COc1ccc(-c2cc(=O)c3c(OC)c(OC)c(OC)c(OC)c3o2)cc1OC [NOBILETIN]
inactive: [1] 49.9 µM | [2] 62.7 µM | [3] 56.2 µM | [4] 17.3 µM | [5] 36.3 µM | [6] 4.86 µM | [7] 25.2 µM | [8] 20.3 µM | [9] > 100 µM | [10] 66.8 µM | [11] 32.5 µM | [12] > 100 µM | [13] 49.4 µM | [14] 61.7 µM | [15] 41.5 µM | [16] 30.5 µM | [17] 59.7 µM | [18] 47.5 µM | [19] 71 µM | [20] 25.6 µM
